Measurements: patent US7524869B2, “Taxanes having a C10 ester substituent” (Florida State University Research Foundation, Inc., priority 2000, dated 2009)
Like-named read-outs stand apart in the source and are kept apart here.

Assays:
HCT116 = assay: In vitro cytotoxicity measured by the cell colony formation assay; assay type: cell-based; conditions: read-out: IN VITRO ID 50 (nm) HCT116
[1] = HCT116 cells, 72 h drug incubation, colonies counted after 7 days, ID50 = drug concentration producing 50% inhibition of colony formation

Row | Structure (SMILES) | IC50 (HCT116; [1]) | further results
1 | CCC(=O)O[C@H]1C(=O)[C@@]2(C)C([C@H](OC(=O)c3ccccc3)[C@]3(O)C[C@H](OC(=O)[C@H](O)[C@@H](NC(=O)c4ccccc4)c4cccs4)C(C)=C1C3(C)C)[C@]1(OC(C)=O)CO[C@@H]1C[C@@H]2O (stereo partly shown) [Compound 0687, 3′-Desphenyl-3′-(2-thienyl)-10-propionyl-10-deacetyl taxol] | – | IC50 (HCT116; Homo sapiens, HCT-116): < 1 nM; melting point: 154 to 155 °C
2 | C/C=C/C(=O)N[C@@H](c1ccco1)[C@@H](O)C(=O)O[C@H]1C[C@@]2(O)[C@@H](OC(=O)c3ccccc3)C3[C@](C)(C(=O)[C@H](OC(=O)C4CC4)C(=C1C)C2(C)C)[C@@H](O)C[C@H]1OC[C@@]31OC(C)=O (stereo partly shown) [Compound 3971] | < 1 nM | –
3 | C/C=C/C(=O)N[C@@H](c1ccco1)[C@@H](O)C(=O)O[C@H]1C[C@@]2(O)[C@@H](OC(=O)c3ccccc3)C3[C@](C)(C(=O)[C@H](OC(=O)CC)C(=C1C)C2(C)C)[C@@H](O)C[C@H]1OC[C@@]31OC(C)=O (stereo partly shown) [Compound 3982] | < 1 nM | –
4 | C/C=C/C(=O)N[C@@H](c1ccco1)[C@@H](O)C(=O)O[C@H]1C[C@@]2(O)[C@@H](OC(=O)c3ccccc3)C3[C@](C)(C(=O)[C@H](OC(=O)CCC)C(=C1C)C2(C)C)[C@@H](O)C[C@H]1OC[C@@]31OC(C)=O (stereo partly shown) [Compound 3994] | < 1 nM | –
5 | CCOC(=O)N[C@@H](c1cccs1)[C@@H](O)C(=O)O[C@H]1C[C@@]2(O)[C@@H](OC(=O)c3ccccc3)C3[C@](C)(C(=O)[C@H](OC(=O)C4CC4)C(=C1C)C2(C)C)[C@@H](O)C[C@H]1OC[C@@]31OC(C)=O (stereo partly shown) [Compound 4051] | < 1 nM | –
6 | CCCC(=O)N[C@@H](c1ccco1)[C@@H](O)C(=O)O[C@H]1C[C@@]2(O)[C@@H](OC(=O)c3ccccc3)C3[C@](C)(C(=O)[C@H](OC(=O)C4CC4)C(=C1C)C2(C)C)[C@@H](O)C[C@H]1OC[C@@]31OC(C)=O (stereo partly shown) [Compound 4062] | < 1 nM | –
7 | CC(=O)O[C@@]12CO[C@@H]1C[C@H](O)[C@@]1(C)C(=O)[C@H](OC(=O)C3CC3)C3=C(C)[C@@H](OC(=O)[C@H](O)[C@@H](NC(=O)c4cccnc4)c4cccs4)C[C@@](O)([C@@H](OC(=O)c4ccccc4)C12)C3(C)C (stereo partly shown) [Compound 4112] | < 10 nM | –
8 | CCC(=O)O[C@H]1C(=O)[C@@]2(C)C([C@H](OC(=O)c3ccccc3)[C@]3(O)C[C@H](OC(=O)[C@H](O)[C@@H](NC(=O)c4cccnc4)c4cccs4)C(C)=C1C3(C)C)[C@]1(OC(C)=O)CO[C@@H]1C[C@@H]2O (stereo partly shown) [Compound 4121] | < 10 nM | –
9 | CCCC(=O)O[C@H]1C(=O)[C@@]2(C)C([C@H](OC(=O)c3ccccc3)[C@]3(O)C[C@H](OC(=O)[C@H](O)[C@@H](NC(=O)c4cccnc4)c4cccs4)C(C)=C1C3(C)C)[C@]1(OC(C)=O)CO[C@@H]1C[C@@H]2O (stereo partly shown) [Compound 4190] | < 10 nM | –
10 | CCC(=O)O[C@H]1C(=O)[C@@]2(C)C([C@H](OC(=O)c3ccccc3)[C@]3(O)C[C@H](OC(=O)[C@H](O)[C@@H](NC(=O)c4ccncc4)c4cccs4)C(C)=C1C3(C)C)[C@]1(OC(C)=O)CO[C@@H]1C[C@@H]2O (stereo partly shown) [Compound 4207] | < 10 nM | –
11 | CC(=O)O[C@@]12CO[C@@H]1C[C@H](O)[C@@]1(C)C(=O)[C@H](OC(=O)C3CC3)C3=C(C)[C@@H](OC(=O)[C@H](O)[C@@H](NC(=O)C=C(C)C)c4cccs4)C[C@@](O)([C@@H](OC(=O)c4ccccc4)C12)C3(C)C (stereo partly shown) [Compound 4329] | < 1 nM | –
12 | CCC(=O)O[C@H]1C(=O)[C@@]2(C)C([C@H](OC(=O)c3ccccc3)[C@]3(O)C[C@H](OC(=O)[C@H](O)[C@@H](NC(=O)C=C(C)C)c4cccs4)C(C)=C1C3(C)C)[C@]1(OC(C)=O)CO[C@@H]1C[C@@H]2O (stereo partly shown) [Compound 4335] | < 1 nM | –
13 | CCCC(=O)O[C@H]1C(=O)[C@@]2(C)C([C@H](OC(=O)c3ccccc3)[C@]3(O)C[C@H](OC(=O)[C@H](O)[C@@H](NC(=O)C=C(C)C)c4cccs4)C(C)=C1C3(C)C)[C@]1(OC(C)=O)CO[C@@H]1C[C@@H]2O (stereo partly shown) [Compound 4344] | < 1 nM | –
14 | CC(=O)O[C@@]12CO[C@@H]1C[C@H](O)[C@@]1(C)C(=O)[C@H](OC(=O)C3CC3)C3=C(C)[C@@H](OC(=O)[C@H](O)[C@@H](NC(=O)OCC(C)C)c4ccoc4)C[C@@](O)([C@@H](OC(=O)c4ccccc4)C12)C3(C)C (stereo partly shown) [Compound 4665] | < 10 nM | –
15 | CCCC(=O)O[C@H]1C(=O)[C@@]2(C)C([C@H](OC(=O)c3ccccc3)[C@]3(O)C[C@H](OC(=O)[C@H](O)[C@@H](NC(=O)OCC(C)C)c4ccoc4)C(C)=C1C3(C)C)[C@]1(OC(C)=O)CO[C@@H]1C[C@@H]2O (stereo partly shown) [Compound 4704] | < 10 nM | –
16 | CCC(=O)O[C@H]1C(=O)[C@@]2(C)C([C@H](OC(=O)c3ccccc3)[C@]3(O)C[C@H](OC(=O)[C@H](O)[C@@H](NC(=O)OCC(C)C)c4ccsc4)C(C)=C1C3(C)C)[C@]1(OC(C)=O)CO[C@@H]1C[C@@H]2O (stereo partly shown) [Compound 4711] | < 10 nM | –
17 | CC(=O)O[C@@]12CO[C@@H]1C[C@H](O)[C@@]1(C)C(=O)[C@H](OC(=O)C3CC3)C3=C(C)[C@@H](OC(=O)[C@H](O)[C@H](C=C(C)C)NC(=O)OCC(C)C)C[C@@](O)([C@@H](OC(=O)c4ccccc4)C12)C3(C)C (stereo partly shown) [Compound 4720] | < 10 nM | –
18 | CCC(=O)O[C@H]1C(=O)[C@@]2(C)C([C@H](OC(=O)c3ccccc3)[C@]3(O)C[C@H](OC(=O)[C@H](O)[C@@H](NC(=O)OCC(C)C)C4CC4)C(C)=C1C3(C)C)[C@]1(OC(C)=O)CO[C@@H]1C[C@@H]2O (stereo partly shown) [Compound 4799] | < 1 nM | –
19 | CCCC(=O)O[C@H]1C(=O)[C@@]2(C)C([C@H](OC(=O)c3ccccc3)[C@]3(O)C[C@H](OC(=O)[C@H](O)[C@@H](NC(=O)OCC(C)C)C4CC4)C(C)=C1C3(C)C)[C@]1(OC(C)=O)CO[C@@H]1C[C@@H]2O (stereo partly shown) [Compound 4808] | < 10 nM | –
20 | CCCC(=O)O[C@H]1C(=O)[C@@]2(C)C([C@H](OC(=O)c3ccccc3)[C@]3(O)C[C@H](OC(=O)[C@H](O)[C@@H](NC(=O)OCC(C)C)c4ccsc4)C(C)=C1C3(C)C)[C@]1(OC(C)=O)CO[C@@H]1C[C@@H]2O (stereo partly shown) [Compound 4834] | < 10 nM | –
21 | C/C=C/C(=O)N[C@@H](c1ccoc1)[C@@H](O)C(=O)O[C@H]1C[C@@]2(O)[C@@H](OC(=O)c3ccccc3)C3[C@](C)(C(=O)[C@H](OC(=O)CC)C(=C1C)C2(C)C)[C@@H](O)C[C@H]1OC[C@@]31OC(C)=O (stereo partly shown) [Compound 4888] | < 1 nM | –
22 | C/C=C/C(=O)N[C@@H](c1ccoc1)[C@@H](O)C(=O)O[C@H]1C[C@@]2(O)[C@@H](OC(=O)c3ccccc3)C3[C@](C)(C(=O)[C@H](OC(=O)CCC)C(=C1C)C2(C)C)[C@@H](O)C[C@H]1OC[C@@]31OC(C)=O (stereo partly shown) [Compound 4919] | < 1 nM | –
23 | C/C=C/C(=O)N[C@@H](c1ccoc1)[C@@H](O)C(=O)O[C@H]1C[C@@]2(O)[C@@H](OC(=O)c3ccccc3)C3[C@](C)(C(=O)[C@H](OC(=O)C4CC4)C(=C1C)C2(C)C)[C@@H](O)C[C@H]1OC[C@@]31OC(C)=O (stereo partly shown) [Compound 4944] | < 1 nM | –
24 | CC(=O)O[C@@]12CO[C@@H]1C[C@H](O)[C@@]1(C)C(=O)[C@H](OC(=O)C3CC3)C3=C(C)[C@@H](OC(=O)[C@H](O)[C@@H](NC(=O)OCC(C)C)c4ccsc4)C[C@@](O)([C@@H](OC(=O)c4ccccc4)C12)C3(C)C (stereo partly shown) [Compound 5011] | < 10 nM | –
25 | C/C=C/C(=O)N[C@@H](c1ccsc1)[C@@H](O)C(=O)O[C@H]1C[C@@]2(O)[C@@H](OC(=O)c3ccccc3)C3[C@](C)(C(=O)[C@H](OC(=O)C4CC4)C(=C1C)C2(C)C)[C@@H](O)C[C@H]1OC[C@@]31OC(C)=O (stereo partly shown) [Compound 5040] | < 1 nM | –
26 | CCC(=O)O[C@H]1C(=O)[C@@]2(C)C([C@H](OC(=O)c3ccccc3)[C@]3(O)C[C@H](OC(=O)[C@H](O)[C@H](C=C(C)C)NC(=O)OCC(C)C)C(C)=C1C3(C)C)[C@]1(OC(C)=O)CO[C@@H]1C[C@@H]2O (stereo partly shown) [Compound 5065] | < 10 nM | –
27 | CCCC(=O)O[C@H]1C(=O)[C@@]2(C)C([C@H](OC(=O)c3ccccc3)[C@]3(O)C[C@H](OC(=O)[C@H](O)[C@H](C=C(C)C)NC(=O)OCC(C)C)C(C)=C1C3(C)C)[C@]1(OC(C)=O)CO[C@@H]1C[C@@H]2O (stereo partly shown) [Compound 5144] | < 10 nM | –
28 | CC(=O)O[C@@]12CO[C@@H]1C[C@H](O)[C@@]1(C)C(=O)[C@H](OC(=O)C3CC3)C3=C(C)[C@@H](OC(=O)[C@H](O)[C@@H](NC(=O)OCC(C)C)C4CC4)C[C@@](O)([C@@H](OC(=O)c4ccccc4)C12)C3(C)C (stereo partly shown) [Compound 5232] | < 10 nM | –
29 | CCC(=O)O[C@H]1C(=O)[C@@]2(C)C([C@H](OC(=O)c3ccccc3)[C@]3(O)C[C@H](OC(=O)[C@H](O)[C@@H](NC(=O)OC(C)(C)C)c4ccoc4)C(C)=C1C3(C)C)[C@]1(OC(C)=O)CO[C@@H]1C[C@@H]2O (stereo partly shown) [Compound 5495] | < 1 nM | –
30 | CCC(=O)O[C@H]1C(=O)[C@@]2(C)C([C@H](OC(=O)c3ccccc3)[C@]3(O)C[C@H](OC(=O)[C@H](O)[C@@H](NC(=O)OC(C)(C)CC)c4ccco4)C(C)=C1C3(C)C)[C@]1(OC(C)=O)CO[C@@H]1C[C@@H]2O (stereo partly shown) [Compound 6522] | < 1 nM | –
